In this experiment the test system is P388 leukemia ip, CD2F1 mice, survival T/C. The experiment in a line: NCI In Vivo Anticancer Drug Screen. Data for tumor model P388 Leukemia (intraperitoneal) in CD2F1 (CDF1) mice. The note with it: endpoint: median survival time, higher = longer survival. In short, it runs like this: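 Mice carrying the transplanted tumor received test compound or vehicle. Survival was recorded in each group, and the value is the treated-group measurement divided by that of the vehicle-treated control group.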

[1] abbreviates: dose: 50.0 mg/kg/injection, schedule: Q01DX009 (ip), vehicle: Klucel (hydroxypropylcellulose) (HPC).
Setting [2] is: dose: 200.0 mg/kg/injection, schedule: Q01DX009 (ip), vehicle: Klucel (hydroxypropylcellulose) (HPC).
Where [3] appears, read: dose: 50.0 mg/kg/injection, schedule: Q01DX009 (ip), vehicle: saline with Tween-80.
Setting [4] is: dose: 50.0 mg/kg/injection, schedule: Q01DX005 (ip), vehicle: saline with Tween-80.
Where [5] appears, read: dose: 100.0 mg/kg/injection, schedule: Q01DX005 (ip), vehicle: saline with Tween-80.
Where [6] appears, read: dose: 200.0 mg/kg/injection, schedule: Q01DX005 (ip), vehicle: saline with Tween-80.
Setting [7] is: dose: 50.0 mg/kg/injection, schedule: Q01DX005 (ip), vehicle: Klucel (hydroxypropylcellulose) (HPC).
Where [8] appears, read: dose: 100.0 mg/kg/injection, schedule: Q01DX005 (ip), vehicle: Klucel (hydroxypropylcellulose) (HPC).
Setting [9] is: dose: 200.0 mg/kg/injection, schedule: Q01DX005 (ip), vehicle: Klucel (hydroxypropylcellulose) (HPC).
Setting [10] is: dose: 12.5 mg/kg/injection, schedule: Q01DX009 (ip), vehicle: saline.
Where [11] appears, read: dose: 25.0 mg/kg/injection, schedule: Q01DX009 (ip), vehicle: saline.
The mark [12] stands for this setting: dose: 50.0 mg/kg/injection, schedule: Q01DX009 (ip), vehicle: saline.
[13] abbreviates: dose: 60.0 mg/kg/injection, schedule: Q01DX005 (ip), vehicle: saline with Tween-80.
Where [14] appears, read: dose: 120.0 mg/kg/injection, schedule: Q01DX005 (ip), vehicle: saline with Tween-80.

“And” between values parts separate entries of the source, which are not always exact repeats. Identical values can stand only once. Inconclusive results and toxic doses are left out.

Regarding `COC(=O)c1cc2c3c(ccc2[nH]1)N(C(=O)c1cc2c4c(ccc2[nH]1)N(C(=O)c1cc2c5c(ccc2[nH]1)N(C(N)=O)CC5)CC4)CC3`, the T/C is, setting by setting: (dose: 12.5 mg/kg/injection, schedule: Q01DX005 (ip), vehicle: DMSO) 110 % of control; (dose: 25.0 mg/kg/injection, schedule: Q01DX005 (ip), vehicle: DMSO) 111 % of control; (dose: 50.0 mg/kg/injection, schedule: Q01DX005 (ip), vehicle: DMSO) 105 % of control; (dose: 100.0 mg/kg/injection, schedule: Q01DX005 (ip), vehicle: DMSO) 112 % of control.
Consider `Cc1cc2nc(C(C)C(=O)c3ccc(Cl)cc3)c(=O)[nH]c2cc1C` (stereo unspecified), for which the T/C runs as follows: (dose: 1.88 mg/kg/injection, schedule: Q01DX005 (ip), vehicle: saline with Tween-80) 100 % of control; (dose: 3.75 mg/kg/injection, schedule: Q01DX005 (ip), vehicle: saline with Tween-80) 104 % of control; (dose: 7.5 mg/kg/injection, schedule: Q01DX005 (ip), vehicle: saline with Tween-80) 86 % of control.
As for `CC1(C)CC(=O)C(CC2=C(N)CC(C)(C)CC2=O)=C(N)C1`, the T/C (dose: 25.0 mg/kg/injection, schedule: Q04DX003 (ip), vehicle: Klucel (hydroxypropylcellulose) (HPC)) is 95 % of control; the T/C (dose: 50.0 mg/kg/injection, schedule: Q04DX003 (ip), vehicle: Klucel (hydroxypropylcellulose) (HPC)) was 101 % of control; the T/C (dose: 100.0 mg/kg/injection, schedule: Q04DX003 (ip), vehicle: Klucel (hydroxypropylcellulose) (HPC)) was 94 % of control; the T/C (dose: 200.0 mg/kg/injection, schedule: Q04DX003 (ip), vehicle: Klucel (hydroxypropylcellulose) (HPC)) was 95 % of control.
In the case of `CC(=O)Nc1ccc(OCCOC(=O)Nc2c(Cl)cccc2Cl)cc1`, the T/C reads like this: under setting [1], 92 % of control; under setting [2], 92 % of control.
For the molecule `O=C(Nc1ccccc1)Oc1cccc(/C=N/S(=O)(=O)c2cccc([N+](=O)[O-])c2)c1`, the T/C under setting [3] was 93 % of control; the T/C (dose: 100.0 mg/kg/injection, schedule: Q01DX009 (ip), vehicle: saline with Tween-80) is 97 % of control; the T/C (dose: 200.0 mg/kg/injection, schedule: Q01DX009 (ip), vehicle: saline with Tween-80) was 98 % of control.
With `COc1ccc2[nH]cc(C#N)c(=O)c2c1`, the T/C under setting [4] was 101 % of control, the T/C under setting [5] was 90 % of control and the T/C under setting [6] is 92 % of control.
For `CN(C)c1ccc(/C=C/C(=O)c2ccc(Nc3ccnc4cc(Cl)ccc34)cc2)cc1`, the T/C (dose: 400.0 mg/kg/injection, schedule: Q04DX002 (ip), vehicle: saline with Tween-80) is 93 % of control.
On to `CS(=O)(=O)/C=C/COC(=O)/C=C/c1ccccc1`, for which the T/C is 102 % of control (dose: 25.0 mg/kg/injection, schedule: Q01DX005 (ip), vehicle: Klucel (hydroxypropylcellulose) (HPC)); 102 % of control under setting [7]; 100 % of control under setting [8]; 102 % of control under setting [9].
As to `C[N+]1(N)CCOCC1`, the T/C by setting is: under setting [10], 97 % of control; under setting [11], 100 % of control; under setting [12], 92 % of control.
Take `CC1(C)C(=O)C(O)=Cc2ccccc21`: the T/C is 109 % of control under setting [7], 107 % of control under setting [8] and 101 % of control under setting [9].
`O=C1CSC(c2ccccc2F)N1c1nccs1` (stereo unspecified): the T/C runs as follows: under setting [7], 100 % of control; under setting [8], 103 % of control; under setting [9], 109 % of control.
Turning to `c1nnc(NCNc2nncs2)s1`, the T/C was 240 % of control (dose: 100.0 mg/kg/injection, schedule: Q04DX003 (ip), vehicle: saline) and 109 % of control (dose: 200.0 mg/kg/injection, schedule: Q04DX003 (ip), vehicle: saline).
In the case of `CCC(C)C(NC(=O)OCC1c2ccccc2-c2ccccc21)C(=O)O` (stereo unspecified), the T/C reads like this: under setting [7], 100 % of control; under setting [8], 100 % of control; under setting [9], 104 % of control.
For `Cn1c(N)c(C(=O)/C=C/c2ccccc2)c(=O)n(CCN2CCOCC2)c1=O`, the T/C reads like this: (dose: 50.0 mg/kg/injection, schedule: Q01DX005 (ip), vehicle: saline) 100 % of control; (dose: 100.0 mg/kg/injection, schedule: Q01DX005 (ip), vehicle: saline) 94 % of control; (dose: 200.0 mg/kg/injection, schedule: Q01DX005 (ip), vehicle: saline) 89 % of control.
On to `Cc1nc2cc[nH]n2c(=O)c1CCc1ccccc1`, for which the T/C was 90 % of control under setting [13] and 88 % of control under setting [14].
As for `Cc1ccc(S(=O)(=O)OCCn2nc(C)c3c(C)cc(=O)oc32)cc1`, the T/C under setting [1] is 103 % of control; the T/C (dose: 100.0 mg/kg/injection, schedule: Q01DX009 (ip), vehicle: Klucel (hydroxypropylcellulose) (HPC)) was 107 % of control; the T/C under setting [2] is 100 % of control.
In the case of `CCCCCCC[CH2][Sn](=[O])[CH2]CCCCCCC`, the T/C under setting [10] was 100 % of control, the T/C under setting [11] was 116 % of control, the T/C under setting [3] was 101 % of control and the T/C under setting [12] is 100 % of control.
`COc1cccc2c1C(=O)c1c(O)c3c(c(O)c1C2=O)CC(O)(/C(C)=N/NC(=O)c1cc(C(F)(F)F)cc(C(F)(F)F)c1)CC3OC1CC(N)C(O)C(C)O1` (stereo unspecified): the T/C is 151 % of control (dose: 0.78 mg/kg/injection, schedule: Q01DX009 (ip), vehicle: water); 174 % of control (dose: 1.56 mg/kg/injection, schedule: Q01DX009 (ip), vehicle: water); 160 % of control and 185 % of control (dose: 3.13 mg/kg/injection, schedule: Q01DX009 (ip), vehicle: water); 93 % of control and 95 % of control (dose: 6.25 mg/kg/injection, schedule: Q01DX009 (ip), vehicle: water).
In the case of `CCO[C@H]1c2cc3c(cc2[C@@H](c2cc(OC)c(OC)c(OC)c2)[C@H]2C(=O)OC[C@@H]21)OCO3`, the T/C was 96 % of control under setting [7] and 112 % of control under setting [8].
Consider `COc1ccc(-c2cc(-c3ccc(OC)cc3OC)[n+](C)c(-c3ccc(OC)cc3OC)c2)cc1`, for which the T/C is, setting by setting: (dose: 0.78 mg/kg/injection, schedule: Q01DX009 (ip), vehicle: saline with Tween-80) 124 % of control; (dose: 1.56 mg/kg/injection, schedule: Q01DX009 (ip), vehicle: saline with Tween-80) 124 % of control.
For `Nc1cc2cc([N+](=O)[O-])ccc2oc1=O`, the T/C (dose: 50.0 mg/kg/injection, schedule: Q01DX005 (ip), vehicle: Klucel + Tween-80) is 96 % of control; the T/C (dose: 100.0 mg/kg/injection, schedule: Q01DX005 (ip), vehicle: Klucel + Tween-80) was 90 % of control; the T/C (dose: 200.0 mg/kg/injection, schedule: Q01DX005 (ip), vehicle: Klucel + Tween-80) was 87 % of control.
Consider `C/C(CCl)=N/NC1=NC(c2ccccc2Cl)P(=O)(NCCCNP2(=O)SC(N/N=C(/C)CCl)=NC2c2ccccc2Cl)S1` (stereo unspecified), for which the T/C reads like this: under setting [13], 99 % of control; under setting [14], 98 % of control; (dose: 240.0 mg/kg/injection, schedule: Q01DX005 (ip), vehicle: saline with Tween-80) 93 % of control.
For `CC(=O)OCCS(CCOC(C)=O)=NS(=O)(=O)c1ccc(C)cc1`, the T/C is, setting by setting: under setting [12], 108 % of control; (dose: 100.0 mg/kg/injection, schedule: Q01DX009 (ip), vehicle: saline) 108 % of control; (dose: 200.0 mg/kg/injection, schedule: Q01DX009 (ip), vehicle: saline) 106 % of control.
For the molecule `O=C1C2C3C=CC(O3)C2C(=O)N1/N=C/c1cccc2ccccc12` (stereo unspecified), the T/C reads like this: under setting [4], 99 % of control; under setting [5], 96 % of control; under setting [6], 89 % of control.
On to `Cc1ccc(S(=O)(=O)N/N=C/c2ccc(O)c(O)c2)cc1`, for which the T/C is 112 % of control (dose: 12.5 mg/kg/injection, schedule: Q01DX009 (ip), vehicle: other); 112 % of control (dose: 25.0 mg/kg/injection, schedule: Q01DX009 (ip), vehicle: other); 112 % of control (dose: 50.0 mg/kg/injection, schedule: Q01DX009 (ip), vehicle: other); 111 % of control and 120 % of control (dose: 100.0 mg/kg/injection, schedule: Q01DX009 (ip), vehicle: other); 112 % of control and 121 % of control (dose: 200.0 mg/kg/injection, schedule: Q01DX009 (ip), vehicle: other); 122 % of control (dose: 400.0 mg/kg/injection, schedule: Q01DX009 (ip), vehicle: other).

(Values after PubChem BioAssay AID330 (DTP/NCI, 2004).)
